Test results published in patent publication US11547737B2, “Compositions and methods for treating virus infection” (priority 2020, dated 2023).
Like-named read-outs stand apart in the source and are kept apart here.

Tests used:
[1] = Solid form stability of CHP forms by XRPD (storage, drying, DVS)
SARS-CoV-2 = test: microbe, parasite or virus in culture; type: cell-based; details: for antiviral activity: used alone; for EC50: read-out: Effective drug concentration (EC50)
[2] = muscle tissues and intestinal segments; cited from earlier work
in vitro = details: African green monkey (Cercopithecus aethiops)
Zn influx into the cell = test: Zn penetration into the cells; type: cell-based
RTCs of SARS-CoV = details: in vitro; cited from earlier work
[3] = test system: RTCs of equine arteritis virus (EAV); details: in vitro; cited from earlier work
COVID-19 = details: hospitalized COVID-19 patients, compared to standard of care, interim trial results; cited from earlier work

O=C1N[C@@H](Cc2cnc[nH]2)C(=O)N2CCC[C@@H]12 [CHP hydrate, cyclo(-His-Pro) hydrate]
form by XRPD ([1]; post various temperature DVS (VT-DVS)): a mixture of Patterns 1 and 2
change in form by XRPD ([1]; post-DVS, 40% RH): no change in form
change in form by XRPD ([1]; stored 40° C./75% RH, seven days): no change
change in form by XRPD ([1]; stored at 80° C., seven days): converted to Pattern 1
change in form by XRPD ([1]; stored at ambient light, seven days): no change
pKa (physchem): ~6.4

O=C1N[C@@H](Cc2cnc[nH]2)C(=O)N2CCC[C@@H]12 [CHP, Cyclo(-His-Pro)]
Selectivity index (SI) CC50/EC50 (SARS-CoV-2; calculated CC50/EC50): ≥ 1.6
antiviral activity (SARS-CoV-2; at a concentration of 10 μmol or lower): does not show antiviral activity
antiviral activity (SARS-CoV-2; at the concentration of 30 mmol): shows an antiviral activity
zinc absorption and uptake [2]: enhanced zinc absorption and uptake

CCN(CC)CCCC(C)Nc1ccnc2cc(Cl)ccc12 (stereo not drawn) [Chloroquine, chloroquine]
EC50 (SARS-CoV-2; Severe acute respiratory syndrome coronavirus 2, Vero): 13 µM
CC50 (in vitro): > 100 µM
Zn penetration into the cells (Zn influx into the cell): an increase of Zn penetration into the cells

O=C1N[C@@H](Cc2cnc[nH]2)C(=O)N2CCC[C@@H]12 [Pattern 1]
form by XRPD ([1]; Pattern 1 post dynamic vapor sorption (DVS)): changed to Pattern 2

[Zn+2] [Zn, zinc]
EC50 (SARS-CoV-2; Vero cells, SARS-CoV-2 MOI 0.1, concentration inhibiting virus replication by 50%): 480 µM
antiviral activity (SARS-CoV-2; at concentrations 200 μmol or lower): does not show any antiviral activity
RNA-synthesizing activity of the RTCs (RTCs of SARS-CoV): efficiently inhibits
cytotoxicity (cell killing) (Vero cells; at the concentration of 600 μmol): kills the cells
CC50 (Vero cells; read-out: Cytotoxicity (CC50), Vero cells, concentration resulting in 50% cell death): 486 µM
RNA-synthesizing activity of the RTCs [3]: efficiently inhibits

CCN(CCO)CCCC(C)Nc1ccnc2cc(Cl)ccc12 (stereo not drawn) [hydroxychloroquine]
reduction in the mortality (COVID-19): little or no reduction
